Experimental data taken from ChEMBL document CHEMBL5465560, “Selectivity Literature for EUbOPEN Chemogenomic Library” (2024).
Each block holds one molecule with its values, some of them ahead of it.

Legend:
[1] = molecular target: Mitogen-activated protein kinase 1 (Homo sapiens, UniProt P28482); test: Selectivity interaction (Kinase panel (literature)) EUB0001199aCl MAPK1; details: at 1 µM
[2] = molecular target: Receptor-interacting serine/threonine-protein kinase 2 (Homo sapiens, UniProt O43353); test: Selectivity interaction (KinomeScan (DiscoverX)) EUB0001079a RIPK2; details: at 1 µM
[3] = molecular target: T1, Serine/threonine-protein kinase 3 (Homo sapiens) (UniProt Q13188); test: Selectivity interaction (KinomeScan (DiscoverX)) EUB0001619a STK3; details: at 1 µM
T1 sequence (whole entry): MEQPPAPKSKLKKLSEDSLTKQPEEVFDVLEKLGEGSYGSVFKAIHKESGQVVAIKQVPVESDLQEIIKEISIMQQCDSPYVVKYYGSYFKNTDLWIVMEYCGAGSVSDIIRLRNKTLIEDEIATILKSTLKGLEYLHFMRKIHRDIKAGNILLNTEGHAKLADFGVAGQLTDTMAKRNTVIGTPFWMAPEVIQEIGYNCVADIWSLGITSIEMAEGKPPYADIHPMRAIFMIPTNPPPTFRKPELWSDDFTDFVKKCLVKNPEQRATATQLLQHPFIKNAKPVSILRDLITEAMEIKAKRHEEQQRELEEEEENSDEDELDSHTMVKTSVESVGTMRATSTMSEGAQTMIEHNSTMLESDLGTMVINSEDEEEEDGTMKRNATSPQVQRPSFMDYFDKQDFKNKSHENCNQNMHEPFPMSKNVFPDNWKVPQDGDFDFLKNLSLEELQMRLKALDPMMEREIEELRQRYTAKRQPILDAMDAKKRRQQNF

[4] = molecular target: T2, Mitogen-activated protein kinase kinase kinase 15 (Homo sapiens) (UniProt Q6ZN16); test: Selectivity interaction (KinomeScan (DiscoverX)) EUB0000045b MAP3K15
T2 sequence (whole entry): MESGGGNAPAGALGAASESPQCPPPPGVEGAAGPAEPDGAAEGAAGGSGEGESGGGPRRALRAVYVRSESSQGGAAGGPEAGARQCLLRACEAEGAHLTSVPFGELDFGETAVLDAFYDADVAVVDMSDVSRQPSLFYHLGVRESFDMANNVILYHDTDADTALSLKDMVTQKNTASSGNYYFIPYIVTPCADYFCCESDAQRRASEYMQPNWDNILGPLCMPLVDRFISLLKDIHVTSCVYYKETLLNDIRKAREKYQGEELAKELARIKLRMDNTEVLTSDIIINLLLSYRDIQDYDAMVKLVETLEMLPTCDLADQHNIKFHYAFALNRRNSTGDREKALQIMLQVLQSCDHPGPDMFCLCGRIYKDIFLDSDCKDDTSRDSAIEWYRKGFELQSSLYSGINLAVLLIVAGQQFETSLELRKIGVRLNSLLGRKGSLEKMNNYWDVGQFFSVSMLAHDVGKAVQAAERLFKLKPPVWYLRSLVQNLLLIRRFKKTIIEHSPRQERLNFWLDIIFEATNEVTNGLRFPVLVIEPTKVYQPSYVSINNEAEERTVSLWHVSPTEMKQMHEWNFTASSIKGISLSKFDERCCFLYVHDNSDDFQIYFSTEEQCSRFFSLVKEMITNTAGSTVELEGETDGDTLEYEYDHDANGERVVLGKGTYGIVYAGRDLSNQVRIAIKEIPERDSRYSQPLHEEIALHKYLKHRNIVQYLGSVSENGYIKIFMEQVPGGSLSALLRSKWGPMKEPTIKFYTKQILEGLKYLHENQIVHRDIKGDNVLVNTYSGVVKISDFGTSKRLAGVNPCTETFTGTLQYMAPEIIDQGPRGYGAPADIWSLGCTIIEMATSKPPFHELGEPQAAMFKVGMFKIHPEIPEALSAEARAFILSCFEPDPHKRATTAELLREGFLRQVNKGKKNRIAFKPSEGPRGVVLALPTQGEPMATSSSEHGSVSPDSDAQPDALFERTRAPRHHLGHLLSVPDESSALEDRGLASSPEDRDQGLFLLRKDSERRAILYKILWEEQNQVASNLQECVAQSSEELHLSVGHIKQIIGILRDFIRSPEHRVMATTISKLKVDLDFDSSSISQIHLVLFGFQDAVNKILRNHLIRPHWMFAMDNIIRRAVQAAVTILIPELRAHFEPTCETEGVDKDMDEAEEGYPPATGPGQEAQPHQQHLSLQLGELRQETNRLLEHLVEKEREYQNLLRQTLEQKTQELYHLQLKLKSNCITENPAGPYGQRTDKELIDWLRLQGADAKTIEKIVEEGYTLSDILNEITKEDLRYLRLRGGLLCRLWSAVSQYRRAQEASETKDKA

[5] = molecular target: T3, TGF-beta receptor type-1 (Homo sapiens) (UniProt P36897); test: Selectivity interaction (KinomeScan (DiscoverX)) EUB0000229b TGFBR1; details: at 10 µM
T3 sequence (whole entry): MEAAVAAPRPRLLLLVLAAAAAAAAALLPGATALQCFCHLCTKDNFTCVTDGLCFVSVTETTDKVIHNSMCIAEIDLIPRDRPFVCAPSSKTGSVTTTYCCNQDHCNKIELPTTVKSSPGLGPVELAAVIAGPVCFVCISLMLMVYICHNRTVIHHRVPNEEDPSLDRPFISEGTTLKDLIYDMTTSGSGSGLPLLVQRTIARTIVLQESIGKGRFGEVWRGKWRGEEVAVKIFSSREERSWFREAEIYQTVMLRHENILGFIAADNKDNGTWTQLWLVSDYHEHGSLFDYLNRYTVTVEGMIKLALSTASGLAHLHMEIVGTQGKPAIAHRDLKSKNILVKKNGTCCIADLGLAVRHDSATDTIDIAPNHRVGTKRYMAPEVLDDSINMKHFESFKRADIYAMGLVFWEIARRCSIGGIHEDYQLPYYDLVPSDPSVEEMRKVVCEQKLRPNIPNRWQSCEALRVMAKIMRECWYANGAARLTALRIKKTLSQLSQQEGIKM

[6] = molecular target: Dual specificity protein kinase CLK1 (Homo sapiens, UniProt P49759); test: Selectivity interaction (KinomeScan (DiscoverX)) EUB0001049a CLK1; details: at 1 µM
[7] = molecular target: Tyrosine-protein kinase JAK1 (Homo sapiens, UniProt P23458); test: Selectivity interaction (KinomeScan (DiscoverX)) EUB0000092b JAK1; details: at 10 µM
[8] = molecular target: Protein kinase C eta type (Homo sapiens) (UniProt P24723); test: Selectivity interaction (Kinase panel (Z-LYTE Assay)) EUB0001632a PRKCH; details: at 10 µM
Protein kinase C eta type (Homo sapiens), sequence (P24723 whole entry): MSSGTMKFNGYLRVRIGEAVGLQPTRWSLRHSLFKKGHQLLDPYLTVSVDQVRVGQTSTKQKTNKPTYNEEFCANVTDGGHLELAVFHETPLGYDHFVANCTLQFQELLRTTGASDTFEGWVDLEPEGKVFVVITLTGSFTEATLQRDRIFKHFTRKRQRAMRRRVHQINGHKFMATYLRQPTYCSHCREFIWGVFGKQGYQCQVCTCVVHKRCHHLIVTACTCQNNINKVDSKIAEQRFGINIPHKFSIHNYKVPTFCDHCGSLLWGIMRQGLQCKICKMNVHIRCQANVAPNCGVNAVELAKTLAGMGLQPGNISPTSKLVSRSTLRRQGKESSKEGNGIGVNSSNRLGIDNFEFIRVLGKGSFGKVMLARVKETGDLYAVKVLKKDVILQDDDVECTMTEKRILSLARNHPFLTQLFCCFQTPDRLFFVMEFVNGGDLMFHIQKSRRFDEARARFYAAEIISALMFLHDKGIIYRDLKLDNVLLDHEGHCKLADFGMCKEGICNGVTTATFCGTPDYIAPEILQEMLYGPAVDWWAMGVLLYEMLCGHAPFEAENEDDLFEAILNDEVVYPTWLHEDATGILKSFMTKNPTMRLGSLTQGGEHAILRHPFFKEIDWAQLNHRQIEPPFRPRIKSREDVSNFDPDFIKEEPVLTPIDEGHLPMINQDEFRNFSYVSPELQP

Tyrosine-protein kinase JAK1, sequence (P23458 whole entry): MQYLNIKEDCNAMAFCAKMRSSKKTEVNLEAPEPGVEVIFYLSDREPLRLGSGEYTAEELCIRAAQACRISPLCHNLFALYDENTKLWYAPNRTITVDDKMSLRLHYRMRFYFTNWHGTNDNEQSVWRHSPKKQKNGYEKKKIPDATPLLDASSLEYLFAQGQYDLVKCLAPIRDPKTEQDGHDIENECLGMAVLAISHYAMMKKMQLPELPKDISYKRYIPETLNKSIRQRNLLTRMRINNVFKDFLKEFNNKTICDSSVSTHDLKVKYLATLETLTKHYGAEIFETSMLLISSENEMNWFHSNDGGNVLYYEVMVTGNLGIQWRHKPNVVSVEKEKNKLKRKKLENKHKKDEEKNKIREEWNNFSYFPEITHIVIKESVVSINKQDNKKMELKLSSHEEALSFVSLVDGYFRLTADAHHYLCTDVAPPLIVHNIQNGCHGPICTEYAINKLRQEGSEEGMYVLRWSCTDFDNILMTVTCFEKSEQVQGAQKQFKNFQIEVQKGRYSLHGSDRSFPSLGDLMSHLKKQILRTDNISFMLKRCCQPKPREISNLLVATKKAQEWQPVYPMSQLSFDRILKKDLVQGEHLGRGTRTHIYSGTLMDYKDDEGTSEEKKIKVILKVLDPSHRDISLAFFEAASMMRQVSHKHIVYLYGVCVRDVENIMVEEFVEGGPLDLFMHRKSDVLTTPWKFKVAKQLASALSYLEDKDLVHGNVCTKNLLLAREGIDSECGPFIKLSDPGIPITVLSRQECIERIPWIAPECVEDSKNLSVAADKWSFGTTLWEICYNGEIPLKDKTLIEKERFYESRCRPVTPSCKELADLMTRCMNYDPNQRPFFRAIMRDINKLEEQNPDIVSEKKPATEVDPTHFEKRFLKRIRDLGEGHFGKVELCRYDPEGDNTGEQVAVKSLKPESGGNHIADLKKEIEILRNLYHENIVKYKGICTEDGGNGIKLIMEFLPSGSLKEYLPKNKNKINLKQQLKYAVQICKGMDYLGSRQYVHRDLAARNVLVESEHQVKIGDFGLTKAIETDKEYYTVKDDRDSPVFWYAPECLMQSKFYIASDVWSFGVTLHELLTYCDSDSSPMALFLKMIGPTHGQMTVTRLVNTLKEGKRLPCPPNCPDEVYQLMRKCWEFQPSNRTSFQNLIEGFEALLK
Dual specificity protein kinase CLK1, sequence (P49759 whole entry, looked up): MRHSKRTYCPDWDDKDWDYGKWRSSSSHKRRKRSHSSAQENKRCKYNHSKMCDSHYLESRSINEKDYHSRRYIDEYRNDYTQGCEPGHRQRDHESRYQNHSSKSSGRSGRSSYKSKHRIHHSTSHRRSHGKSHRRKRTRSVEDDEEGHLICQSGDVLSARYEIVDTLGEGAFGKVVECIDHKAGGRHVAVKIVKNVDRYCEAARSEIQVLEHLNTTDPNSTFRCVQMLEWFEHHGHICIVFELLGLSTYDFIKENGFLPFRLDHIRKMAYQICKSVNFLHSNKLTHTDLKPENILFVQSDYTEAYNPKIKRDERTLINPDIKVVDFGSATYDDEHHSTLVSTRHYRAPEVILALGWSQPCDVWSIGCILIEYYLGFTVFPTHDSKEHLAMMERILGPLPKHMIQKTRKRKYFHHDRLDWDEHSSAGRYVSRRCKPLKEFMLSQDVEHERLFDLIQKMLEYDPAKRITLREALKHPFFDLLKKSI
Receptor-interacting serine/threonine-protein kinase 2, sequence (O43353 whole entry): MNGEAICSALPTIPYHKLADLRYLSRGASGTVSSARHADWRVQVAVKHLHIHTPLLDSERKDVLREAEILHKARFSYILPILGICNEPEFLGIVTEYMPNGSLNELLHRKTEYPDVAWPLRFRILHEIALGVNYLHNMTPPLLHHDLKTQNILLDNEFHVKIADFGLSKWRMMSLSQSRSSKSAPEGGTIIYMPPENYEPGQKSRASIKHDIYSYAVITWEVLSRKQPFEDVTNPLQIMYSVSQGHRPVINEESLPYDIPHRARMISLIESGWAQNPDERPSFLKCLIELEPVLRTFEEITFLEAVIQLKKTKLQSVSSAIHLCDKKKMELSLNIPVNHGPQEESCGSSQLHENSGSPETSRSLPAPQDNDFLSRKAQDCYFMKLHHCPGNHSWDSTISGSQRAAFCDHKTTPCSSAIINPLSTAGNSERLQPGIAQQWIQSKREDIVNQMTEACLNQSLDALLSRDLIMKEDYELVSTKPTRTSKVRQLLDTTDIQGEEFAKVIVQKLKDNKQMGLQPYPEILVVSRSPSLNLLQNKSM
Mitogen-activated protein kinase 1, sequence (P28482 whole entry): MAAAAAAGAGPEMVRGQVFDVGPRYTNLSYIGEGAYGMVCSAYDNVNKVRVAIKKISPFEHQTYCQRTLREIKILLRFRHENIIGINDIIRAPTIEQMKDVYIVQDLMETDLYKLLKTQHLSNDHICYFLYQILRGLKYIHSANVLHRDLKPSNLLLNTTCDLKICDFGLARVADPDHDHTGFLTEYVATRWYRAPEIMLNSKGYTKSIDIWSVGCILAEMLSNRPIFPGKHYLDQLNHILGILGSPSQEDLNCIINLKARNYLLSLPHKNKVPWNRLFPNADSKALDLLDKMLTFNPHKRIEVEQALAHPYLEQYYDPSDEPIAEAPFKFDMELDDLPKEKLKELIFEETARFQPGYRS

% of inhibition [1]: 2%
SMILES: CN1Cc2nccc(-c3cn(C)nc3-c3ccc(F)cc3)c2C1=O

SMILES: Nc1cnc(N2CCc3cc(S(=O)(=O)Nc4c(F)cc(Cl)cc4F)cc(N4CCCC4=O)c32)nc1 [TP-020n]
% of control [2]: 53%

SMILES: N#Cc1cccc(-c2c[nH]c3ncnc(N4CCOCC4)c23)c1
% of control [3]: 1.8%

SMILES: C=CC(=O)Nc1cc(-n2c(=O)ccc3cnc4ccc(-c5ccc(NS(C)(=O)=O)cc5)cc4c32)ccc1C
% of control ([4]; at 1 µM): 70% | % of control ([4]; at 10 µM): 100%

SMILES: COc1cc(N(C)c2ccnc3ccc(C(F)(F)F)cc23)cc(OC)c1OC
% binding [5]: 89%

SMILES: COc1cc(Nc2nc(C)cc(-c3cnn4nc(OC)ccc34)n2)cc(C(F)(F)F)c1
% of control [6]: 100%

SMILES: CCC(=O)N1CCN(c2ccc(-n3c(=O)ccc4cnc5ccc(-c6cnc7ccccc7c6)cc5c43)cc2C(F)(F)F)CC1
% of control [7]: 82%

% of control [8]: 19.3%
SMILES: Cn1cc(-n2cnc3c(NCc4nc5cc(Cl)c(Cl)cc5[nH]4)nc(N4CCOCC4)nc32)cn1
